Data from paper PMC6627993 (International Journal of Molecular Sciences, 2019).
Like-named read-outs stand apart in the source and are kept apart here. Blank lines part the entries; values can stand above or below the compound they belong to.

Legend:
A2780 [1] = experiment: MTT cell viability assay
Method: (§4) The rate of cell-survival under the action of test substances was evaluated by an improved MTT assay as previously described [20, 31]. […] Incubation was ended after 72 h and cell survival was determined by addition of MTT (Serva, Heidelberg, Germany) solution (5 mg/mL in phosphate buffered saline). The formazan precipitate was dissolved in DMSO (VWR, Langenfeld, Germany). Absorbance was measured at 544 nm and 690 nm in a FLUOstar microplate-reader (BMG LabTech, Offenburg, Germany).

HEY [2] = experiment: MTT cell viability assay
Method: as §4

Kuramochi = experiment: MTT cell viability assay
Method: as §4

A2780 [3] = conditions: cited from earlier work
CaOV3 = experiment: MTT cell viability assay
Method: as §4

OVSAHO [4] = experiment: MTT cell viability assay
Method: as §4

[5] = tested on: A2780, CaOV3, HEY, Kuramochi, OVSAHO; experiment: Synergism study (Chou-Talalay, MTT), all cell lines; format: cell-based, human; conditions: 48 h + 72 h; CI < 0.9 indicates synergism
Method: (§1) Concentrations were chosen to achieve a fraction affected (fa; level of cell viability inhibition) between 0.2 and 0.9 in the Chou-Talalay-analysis.
(§2) After 72 h, the cytotoxic effect was determined with a MTT cell viability assay. Calcusyn software 2.1 (Biosoft, Cambridge, UK) was used to calculate the combination index (CI) as a quantitative measure of the degree of drug interaction.

HEY [6] = experiment: Measurement of apoptotic nuclei (subG1, flow cytometry); format: cell-based, human; conditions: HDACi 48 h, then cisplatin IC50 24 h
Method: Next, we investigated if the observed synergistic cytotoxic effect was mediated via apoptosis-induction. […] Then, cells were subjected to flow-cytometry-based subG1 analysis.
A2780, CaOV3, HEY, Kuramochi, and OVSAHO cells were seeded at a density of 40,000 c/w, 50,000 c/w, 40,000 c/w, 60,000 c/w, and 100,000 c/w in 24-well plates (Sarstedt, Nürnbrecht, Germany). Cells were treated with entinostat, panobinostat, or nexturastat A and cisplatin alone or in combination for the indicated time points. Supernatant was removed after a centrifugation step and the cells were lysed in 500 µL hypotonic lysis buffer (0.1% sodium citrate, 0.1% Triton X-100, 100 µg/mL PI) at 4 °C in the dark overnight. The percentage of apoptotic nuclei with DNA content in sub-G1 was analyzed by flow cytometry using the CyFlow instrument (Partec, Norderstedt, Germany).

A2780 [7] = experiment: Synergism study (Chou-Talalay, MTT), 48 h HDACi + 72 h HDACi and cisplatin; format: cell-based, human
Method: as §1, §2

HEY [8] = experiment: as above; format: cell-based, human
Method: as §1, §2

OVSAHO [9] = experiment: as above; format: cell-based, human
Method: as §1, §2

HDAC in A2780 cells = experiment: Whole-cell HDAC inhibition assay; format: cell-based, human; conditions: 18 h incubation
Method: (§3) The cellular HDAC assay was based on an assay published by Heltweg and Jung, Ciossek et al., and Bonfils et al. with minor modifications as described in [20]. Briefly, human cancer cell lines A2780, CaOV3, HEY, Kuramochi, and OVSAHO were seeded in 96-well tissue culture plates (Corning, Kaiserslautern, Germany) at a density of 15,000 c/w, 15,000 c/w, 17,500 c/w, 22,500 c/w, and 50,000 c/w in a total volume of 90 µL of culture medium. After 24 h, cells were incubated for 18 h with increasing concentrations of test compounds. The reaction was started by adding 10 µL of 3 mM Boc-Lys(Ac)-AMC (Bachem, Bubendorf, Switzerland) to reach final concentration of 0.3 mM [61]. The cells were incubated with the Boc-Lys(Ac)-AMC for 3 h under cell culture conditions. […] Fluorescence intensity was measured at excitation of 320 nm and emission of […] in a NOVOstar microplate reader (BMG LabTech, Offenburg, Germany).

HDAC in OVSAHO cells = experiment: Whole-cell HDAC inhibition assay; format: cell-based, human; conditions: 18 h incubation
Method: as §3

HDAC in Kuramochi cells = experiment: Whole-cell HDAC inhibition assay; format: cell-based, human; conditions: 18 h incubation
Method: as §3

HDAC in HEY cells = experiment: Whole-cell HDAC inhibition assay; format: cell-based, human; conditions: 18 h incubation
Method: as §3

HDAC in CaOV3 cells = experiment: Whole-cell HDAC inhibition assay; format: cell-based, human; conditions: 18 h incubation
Method: as §3

[10] = read-out: IC50 of cisplatin, cisplatin alone, 72 h
[11] = cisplatin 1.00 µM + panobinostat 40 nM
[12] = cisplatin 2.00 µM + panobinostat 40 nM
[13] = cisplatin 4.00 µM + panobinostat 40 nM
[14] = read-out: IC50 (HDAC inhibitory activity)

Structure (SMILES): N.N.[Cl][Pt][Cl] [Cisplatin, cis-diamminedichloridoplatinum(II)]
IC50 (A2780 [1]; 72 h incubation): 11 µM | pIC50 ± SEM (A2780 [1]; 72 h incubation): 4.96 ± 0.01 | IC50 (A2780 [1]; [10]): 11 µM | IC50 (HEY [2]; 72 h incubation): 5.25 µM | pIC50 ± SEM (HEY [2]; 72 h incubation): 5.28 ± 0.01 | IC50 (HEY [2]; [10]): 5.25 µM | IC50 (Kuramochi; 72 h incubation): 4.68 µM | pIC50 ± SEM (Kuramochi; 72 h incubation): 5.33 ± 0.02 | IC50 (Kuramochi; [10]): 4.68 µM | IC50-values for cisplatin in previous studies (A2780 [3]): one-digit micromolar range | IC50 (CaOV3; 72 h incubation): 1.44 µM | pIC50 ± SEM (CaOV3; 72 h incubation): 5.84 ± 0.01 | IC50 (CaOV3; [10]): 1.44 µM | IC50 (OVSAHO [4]; 72 h incubation): 4.83 µM | pIC50 ± SEM (OVSAHO [4]; 72 h incubation): 5.32 ± 0.01 | IC50 (OVSAHO [4]; [10]): 4.83 µM

pIC50 ± SEM (HDAC inhibitory activity) (HDAC in A2780 cells): 7.91 ± 0.06 | IC50 (HDAC in A2780 cells; [14]): 0.0121 µM | pIC50 ± SEM (HDAC inhibitory activity) (HDAC in OVSAHO cells): 7.64 ± 0.04 | IC50 (HDAC in OVSAHO cells; [14]): 0.0231 µM | pIC50 ± SEM (HDAC inhibitory activity) (HDAC in Kuramochi cells): 8.01 ± 0.07 | IC50 (HDAC in Kuramochi cells; [14]): 0.00987 µM | pIC50 ± SEM (HDAC inhibitory activity) (HDAC in HEY cells): 7.87 ± 0.03 | IC50 (HDAC in HEY cells; [14]): 0.0136 µM | pIC50 ± SEM (HDAC inhibitory activity) (HDAC in CaOV3 cells): 8.10 ± 0.05 | IC50 (HDAC in CaOV3 cells; [14]): 0.00788 µM
Structure (SMILES): Cc1[nH]c2ccccc2c1CCNCc1ccc(/C=C/C(=O)NO)cc1 [Panobinostat, panobinostat]
CI-values (interaction with cisplatin) [5]: lower than 0.9 | apoptosis induction, combination with cisplatin versus cisplatin or HDACi alone (HEY [6]): no difference in apoptosis induction | combination index (CI) (A2780 [7]; cisplatin 0.50 µM + panobinostat 10 nM): 0.21 | combination index (CI) (A2780 [7]; cisplatin 0.50 µM + panobinostat 20 nM): 0.10 | combination index (CI) (A2780 [7]; cisplatin 0.50 µM + panobinostat 30 nM): 0.15 | combination index (CI) (A2780 [7]; cisplatin 0.50 µM + panobinostat 40 nM): 0.15 | combination index (CI) (A2780 [7]; cisplatin 1.00 µM + panobinostat 10 nM): 0.25 | combination index (CI) (A2780 [7]; cisplatin 1.00 µM + panobinostat 20 nM): 0.12 | combination index (CI) (A2780 [7]; cisplatin 1.00 µM + panobinostat 30 nM): 0.17 | combination index (CI) (A2780 [7]; [11]): 0.18 | combination index (CI) (A2780 [7]; cisplatin 2.00 µM + panobinostat 10 nM): 0.35 | combination index (CI) (A2780 [7]; cisplatin 2.00 µM + panobinostat 20 nM): 0.16 | combination index (CI) (A2780 [7]; cisplatin 2.00 µM + panobinostat 30 nM): 0.22 | combination index (CI) (A2780 [7]; [12]): 0.21 | combination index (CI) (A2780 [7]; cisplatin 4.00 µM + panobinostat 10 nM): 0.35 | combination index (CI) (A2780 [7]; cisplatin 4.00 µM + panobinostat 20 nM): 0.21 | combination index (CI) (A2780 [7]; cisplatin 4.00 µM + panobinostat 30 nM): 0.27 | combination index (CI) (A2780 [7]; [13]): 0.25 | combination index (CI) (A2780 [7]; cisplatin 6.00 µM + panobinostat 10 nM): 0.29 | combination index (CI) (A2780 [7]; cisplatin 6.00 µM + panobinostat 20 nM): 0.23 | combination index (CI) (A2780 [7]; cisplatin 6.00 µM + panobinostat 30 nM): 0.26 | combination index (CI) (A2780 [7]; cisplatin 6.00 µM + panobinostat 40 nM): 0.26 | combination index (CI) (HEY [8]; cisplatin 0.32 µM + panobinostat 5.0 nM): * (* means fraction affected is less than 0.20) | combination index (CI) (HEY [8]; cisplatin 0.32 µM + panobinostat 10.0 nM): * (* means fraction affected is less than 0.20) | combination index (CI) (HEY [8]; cisplatin 0.32 µM + panobinostat 20.0 nM): 0.14 | combination index (CI) (HEY [8]; cisplatin 0.32 µM + panobinostat […]): 0.19 | combination index (CI) (HEY [8]; cisplatin 0.50 µM + panobinostat 5.0 nM): * (* means fraction affected is less than 0.20) | combination index (CI) (HEY [8]; cisplatin 0.50 µM + panobinostat 10.0 nM): * (* means fraction affected is less than 0.20) | combination index (CI) (HEY [8]; cisplatin 0.50 µM + panobinostat 20.0 nM): 0.15 | combination index (CI) (HEY [8]; cisplatin 0.50 µM + panobinostat […]): 0.21 | combination index (CI) (HEY [8]; cisplatin 1.00 µM + panobinostat 5.0 nM): * (* means fraction affected is less than 0.20) | combination index (CI) (HEY [8]; cisplatin 1.00 µM + panobinostat 10.0 nM): * (* means fraction affected is less than 0.20) | combination index (CI) (HEY [8]; cisplatin 1.00 µM + panobinostat 20.0 nM): 0.16 | combination index (CI) (HEY [8]; cisplatin 1.00 µM + panobinostat […]): 0.25 | combination index (CI) (HEY [8]; cisplatin 2.00 µM + panobinostat 5.0 nM): * (* means fraction affected is less than 0.20) | combination index (CI) (HEY [8]; cisplatin 2.00 µM + panobinostat 10.0 nM): 0.41 | combination index (CI) (HEY [8]; cisplatin 2.00 µM + panobinostat 20.0 nM): 0.17 | combination index (CI) (HEY [8]; cisplatin 2.00 µM + panobinostat […]): 0.25 | combination index (CI) (HEY [8]; cisplatin 4.00 µM + panobinostat 5.0 nM): 0.51 | combination index (CI) (HEY [8]; cisplatin 4.00 µM + panobinostat 10.0 nM): 0.33 | combination index (CI) (HEY [8]; cisplatin 4.00 µM + panobinostat 20.0 nM): 0.20 | combination index (CI) (HEY [8]; cisplatin 4.00 µM + panobinostat […]): 0.28 | combination index (CI) (OVSAHO [9]; [11]): 0.36 | combination index (CI) (OVSAHO [9]; cisplatin 1.00 µM + panobinostat 50 nM): 0.33 | combination index (CI) (OVSAHO [9]; cisplatin 1.00 µM + panobinostat 60 nM): 0.27 | combination index (CI) (OVSAHO [9]; cisplatin 1.00 µM + panobinostat 70 nM): 0.26 | combination index (CI) (OVSAHO [9]; [12]): 0.25 | combination index (CI) (OVSAHO [9]; cisplatin 2.00 µM + panobinostat 50 nM): 0.23 | combination index (CI) (OVSAHO [9]; cisplatin 2.00 µM + panobinostat 60 nM): 0.21 | combination index (CI) (OVSAHO [9]; cisplatin 2.00 µM + panobinostat 70 nM): 0.21 | combination index (CI) (OVSAHO [9]; cisplatin 3.00 µM + panobinostat 40 nM): 0.24 | combination index (CI) (OVSAHO [9]; cisplatin 3.00 µM + panobinostat 50 nM): 0.22 | combination index (CI) (OVSAHO [9]; cisplatin 3.00 µM + panobinostat 60 nM): 0.21 | combination index (CI) (OVSAHO [9]; cisplatin 3.00 µM + panobinostat 70 nM): 0.21 | combination index (CI) (OVSAHO [9]; [13]): 0.23 | combination index (CI) (OVSAHO [9]; cisplatin 4.00 µM + panobinostat 50 nM): 0.22 | combination index (CI) (OVSAHO [9]; cisplatin 4.00 µM + panobinostat 60 nM): 0.21 | combination index (CI) (OVSAHO [9]; cisplatin 4.00 µM + panobinostat 70 nM): 0.21 | combination index (CI) (OVSAHO [9]; cisplatin 5.00 µM + panobinostat 40 nM): 0.24 | combination index (CI) (OVSAHO [9]; cisplatin 5.00 µM + panobinostat 50 nM): 0.23 | combination index (CI) (OVSAHO [9]; cisplatin 5.00 µM + panobinostat 60 nM): 0.22 | combination index (CI) (OVSAHO [9]; cisplatin 5.00 µM + panobinostat 70 nM): 0.22
